Test results: US20140308668A1, “Method of Determining Susceptibility of a Tumor Cell to a Chemotherapeutic Agent: Novel Use of Herpes SImplex Virus” (priority 2008, published 2014)

Columns and labels:
Hs578T tumor cells = assay: Apoptotic killing of Hs578T tumor cells (morphological alternations by microscopy/Hoechst, death factor processing by immunoblot); assay type: cell-based
Method: We have established an in vitro cell model and examined herpes simplex virus-induced apoptotic killing of tumor cells. In the first series of studies, we used a standard inducer of apoptotic killing. A protein kinase inhibitor (i.e., staurosporine) was used. Mammary tumor cells (Hs578T) were cultured and treated with staurosporine (0.1-2 μM) for about 12-18 hours. […] (FIG. 1).
Using Hs578T cells, we next examined whether herpes simplex virus (HSV) can induce apoptotic killing in these tumor cells. Standard methods were used to prepare wild-type HSV-1 (i.e., wtHSV-1). (Blaho et al.: Herpes Simplex Virus: Propagation, Quantification, and Storage. Current Protocols in Microbiology. Wiley & Sons. 14:1-23, 2005). Hs578T cells were infected with wtHSV-1 and examined for tumor cell apoptotic killing. A range of wtHSV-1 concentration was used and we observed that one particle of wtHSV-1 was sufficient to induce apoptotic killing of a tumor cell. Apoptotic killing was evaluated at 24-hour post infection by monitoring morphological alternations and presence of death factor processing as detailed above.
INFECTION OF TUMOR CELLS WITH HSV MUTANTS: Approximately 1×10^6 cells (i.e., tumor cells) were exposed to 10 plaque forming units (PFU) per ml of ΔICP27 virus in 1 ml of 5% NBCS for 1 hour at 37° C. After this adsorption step, the medium was removed and discarded. 3 ml of fresh 5 NBCS was then added. […]
MICROSCOPIC ANALYSIS OF HSV INFECTED TUMOR CELLS: The morphology of HSV infected cells was analyzed by phase contrast and fluorescence microscopy using an Olympus IX70/IX-FLA inverted fluorescence microscope. […]
For visualization of chromatin condensation in live cells, […] Hoechst 33258 (Sigma) per ml was added to the medium and allowed to incubate at 37° C. for 30 min. The percentage (%) of nuclei containing condensed chromatin was determined by dividing the number of brightly stained, small (condensed) nuclei by the total number of nuclei (uncondensed plus condensed) in a particular (640) microscopic field. At least 100 nuclei were counted for each data point. […]

Melanoma (A375) = details: cited from earlier work
Ovarian tumor (ES-2) = details: cited from earlier work
Hepatic tumor (Hep3B) = details: cited from earlier work
Hepatic tumor (SNU182) = details: cited from earlier work
Hepatic tumor (SNU423) = details: cited from earlier work
Breast tumor (R193) = details: cited from earlier work
Breast tumor (SKBR3) = details: cited from earlier work
[1] = system: Pancreatic tumor (181/85P); details: cited from earlier work
Gastric tumor (257P) = details: cited from earlier work
HEp-2 cells = assay: Apoptotic killing of HEp-2 tumor cells (morphological alternations and death factor processing); assay type: cell-based, human; details: for apoptotic killing (morphological alternations and death factor processing): doxorubicin 10 μM, etoposide 125 μM, data not shown
From the text: We also examined if a different type of herpes simplex virus (i.e., HSV-2) may induce apoptotic killing of tumor cells. Standard methods were used to prepare wild-type HSV-2 (i.e., wtHSV-2). (Blaho et al.: Herpes Simplex Virus: Propagation, Quantification, and Storage. Current Protocols in Microbiology. Wiley & Sons. 14:1-23, 2005). Tumor cells (human carcinoma HEp-2) were used and infected with wtHSV-2. […] In particular, wtHSV-2 caused both the morphological alternations and death factor processing (data not shown). Thus, infection of Hs578T and HEp-2 cells with wtHSV-1 and wtHSV-2, respectively, leads to substantial apoptotic killing of tumor cells.
We examined tumor cell killing by chemotherapeutic agents. In this study, HEp-2 cells were treated with varying amounts of doxorubicin and etoposide. Apoptotic killing was measured using the method detailed above. […] Thus, these tumor cells were sensitive to chemotherapeutic agents.
INFECTION OF TUMOR CELLS WITH HSV MUTANTS: Approximately 1×10^6 cells (i.e., tumor cells) were exposed to 10 plaque forming units (PFU) per ml of ΔICP27 virus in 1 ml of 5% NBCS for 1 hour at 37° C. After this adsorption step, the medium was removed and discarded. 3 ml of fresh 5 NBCS was then added. Cells were maintained at 37° C. for at least 18 hours.
MICROSCOPIC ANALYSIS OF HSV INFECTED TUMOR CELLS: The morphology of HSV infected cells was analyzed by phase contrast and fluorescence microscopy using an Olympus IX70/IX-FLA inverted fluorescence microscope. Images were acquired using a Sony DKC-5000 digital photo camera linked to a PowerMac workstation and processed through Adobe Photoshop.
For visualization of chromatin condensation in live cells, […] Hoechst 33258 (Sigma) per ml was added to the medium and allowed to incubate at 37° C. for 30 min. The percentage (%) of nuclei containing condensed chromatin was determined by dividing the number of brightly stained, small (condensed) nuclei by the total number of nuclei (uncondensed plus condensed) in a particular (640) microscopic field. At least 100 nuclei were counted for each data point. The percentage (%) of chromatin condensation is represented as the mean±SD of three independent experiments.
IMMUNOBLOT ANALYSIS OF HSV INFECTED TUMOR CELLS: Whole-cell protein extract was prepared using lysis buffer (50 mM Tris/HCl, pH 7.5, 150 mM NaCl, 1% Triton X-100,1% deoxycholate, 0.1% SDS) supplemented with 2 mM PMSF (freshly prepared stock), 1% Translysol, 0.1 mM L-1-chloro-3-(4-tosylamido)-4-phenyl-2-butanone, 0.01 mM L-1-chlor-3-(4-tosylamido)-7-amino-2-heptanon-hydrochloride. Protein concentrations were determined using a modified Bradford protein assay (Bio-Rad Laboratories). […]

MCF-7 = assay: Apoptotic killing of MCF-7 breast tumor cells; assay type: cell-based; details: MCF-7 tumor cells

Row | Structure (SMILES) | Death Factor Processing Poly(ADP-ribose) Polymerase, Procaspase 3, and DNA Fragmentation Factor-45 (Hs578T tumor cells; immunoblot) | chromatin condensation (percentage of nuclei containing condensed chromatin) (Hs578T tumor cells; staurosporine 0.1-2 μM, about 12-18 hours, mean±SD of three independent experiments) [%] | apoptotic effects (Hs578T tumor cells; cycloheximide alone, data not shown) | Resistant or Sensitive to Chemotherapeutic Agents (Melanoma (A375)) | Resistant or Sensitive to Chemotherapeutic Agents (Ovarian tumor (ES-2)) | Resistant or Sensitive to Chemotherapeutic Agents (Hepatic tumor (Hep3B)) | Resistant or Sensitive to Chemotherapeutic Agents (Hepatic tumor (SNU182)) | Resistant or Sensitive to Chemotherapeutic Agents (Hepatic tumor (SNU423)) | Resistant or Sensitive to Chemotherapeutic Agents (Breast tumor (R193)) | Resistant or Sensitive to Chemotherapeutic Agents (Breast tumor (SKBR3)) | Resistant or Sensitive to Chemotherapeutic Agents [1] | Resistant or Sensitive to Chemotherapeutic Agents (Gastric tumor (257P)) | sensitivity of tumor cells to chemotherapeutic agent (HEp-2 cells) | apoptotic killing (morphological alternations and death factor processing) (HEp-2 cells) | resistance of tumor cells to chemotherapeutic agent (drug-induced apoptosis) (MCF-7)
1 | CN[C@@H]1C[C@H]2O[C@@](C)([C@@H]1OC)n1c3ccccc3c3c4c(c5c6ccccc6n2c5c31)C(=O)NC4 [Staurosporine, staurosporine] | drastic death factor processing | 86±14 |  |  |  |  |  |  |  |  |  |  |  |  | 
2 | C[C@@H]1C[C@@H]([C@H](O)CC2CC(=O)NC(=O)C2)C(=O)[C@@H](C)C1 [Cycloheximide, cycloheximide] |  |  | no apparent apoptotic effects |  |  |  |  |  |  |  |  |  |  |  | 
3 | N.N.[Cl][Pt][Cl] [Cisplatin, cisplatin] |  |  |  | Resistant | Resistant | Resistant | Resistant | Resistant | Resistant | Resistant | Resistant | Resistant |  |  | 
4 | COc1cccc2c1C(=O)c1c(O)c3c(c(O)c1C2=O)C[C@@](O)(C(=O)CO)C[C@@H]3O[C@H]1C[C@H](N)[C@H](O)[C@H](C)O1 [Doxorubicin, doxorubicin] |  |  |  | Resistant | Resistant | Resistant | Resistant | Resistant | Resistant | Resistant | Resistant | Resistant | sensitive | induce morphological alternations and death factor processing | resistant
5 | CC(=O)O[C@H]1C(=O)[C@@]2(C)[C@H]([C@H](OC(=O)c3ccccc3)[C@]3(O)C[C@H](OC(=O)[C@H](O)[C@@H](NC(=O)c4ccccc4)c4ccccc4)C(C)=C1C3(C)C)[C@]1(OC(C)=O)CO[C@@H]1C[C@@H]2O [Paclitaxel, paclitaxel] |  |  |  | Sensitive | Resistant | Resistant | Resistant | Sensitive | Sensitive | Sensitive | Sensitive | Sensitive |  |  | 
6 | O=c1[nH]cc(F)c(=O)[nH]1 [5-Fluorouracil, 5-fluorouracil] |  |  |  | Resistant | Sensitive | Resistant | Resistant | Resistant | Sensitive | Sensitive | Sensitive | Resistant |  |  | 
7 | COc1cc([C@@H]2c3cc4c(cc3[C@@H](O[C@@H]3O[C@@H]5CO[C@@H](C)O[C@H]5[C@H](O)[C@H]3O)[C@H]3COC(=O)[C@H]23)OCO4)cc(OC)c1O [Etoposide, etoposide] |  |  |  | Resistant | Resistant | Resistant | Resistant | Resistant | Resistant | Resistant | Resistant | Resistant | sensitive | induce morphological alternations and death factor processing | resistant
